What was measured:
Assay in all cases: relative viability (nuclei count vs DMSO), 5 days (fraction); higher = more cells survive
MLN4924 + Luminespib = compound: NS(=O)(=O)OC[C@@H]1C[C@@H](n2ccc3c(N[C@H]4CCc5ccccc54)ncnc32)C[C@@H]1O [MLN4924] + CCNC(=O)c1noc(-c2cc(C(C)C)c(O)cc2O)c1-c1ccc(CN2CCOCC2)cc1 [Luminespib] (partner 0.01 µM)
Procedure, shortened: (§1)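 Lung cancer cell lines in 1536-well plates were dosed by pin tool the day after seeding, either with one drug alone or with a fixed anchor-drug dose plus five library-drug doses (not always all listed) in √10 steps. After 5 days, cells were fixed and their nuclei stained in one step (final 0.05% Triton X-100, 1% formaldehyde, 1 ug/ml Hoechst), then counted on 4× images. Relative viability is the nuclei count in treated wells divided by that in vehicle wells. Values are medians of duplicate plates.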

GSK126 + Foretinib = compound: CC[C@H](C)N1C=C(C2=C(C=C(C=C21)C3=CN=C(C=C3)N4CCNCC4)C(=O)NCC5=C(C=C(NC5=O)C)C)C [GSK126] + COc1cc2c(Oc3ccc(NC(=O)C4(C(=O)Nc5ccc(F)cc5)CC4)cc3F)ccnc2cc1OCCCN1CCOCC1 [Foretinib] (partner 0.25 µM)
Procedure, shortened: as §1

Carboplatin + Foretinib = compound: C1CC(C1)(C(=O)O)C(=O)O.[NH2-].[NH2-].[Pt+2] [Carboplatin] + COc1cc2c(Oc3ccc(NC(=O)C4(C(=O)Nc5ccc(F)cc5)CC4)cc3F)ccnc2cc1OCCCN1CCOCC1 [Foretinib] (partner 0.25 µM)
Procedure, shortened: as §1

MLN4924 + Bortezomib = compound: NS(=O)(=O)OC[C@@H]1C[C@@H](n2ccc3c(N[C@H]4CCc5ccccc54)ncnc32)C[C@@H]1O [MLN4924] + CC(C)C[C@H](NC(=O)[C@H](Cc1ccccc1)NC(=O)c1cnccn1)B(O)O [Bortezomib] (partner 0.002 µM)
Procedure, shortened: as §1

Cell Line	relative viability (MLN4924 + Luminespib; first compound 0.04 µM)	relative viability (MLN4924 + Luminespib; first compound 0.1265 µM)	relative viability (MLN4924 + Luminespib; first compound 0.4 µM)	relative viability (MLN4924 + Luminespib; first compound 1.265 µM)	relative viability (MLN4924 + Luminespib; first compound 4 µM)	relative viability (GSK126 + Foretinib; first compound 0.08 µM)	relative viability (GSK126 + Foretinib; first compound 0.253 µM)	relative viability (GSK126 + Foretinib; first compound 0.8 µM)	relative viability (GSK126 + Foretinib; first compound 2.53 µM)	relative viability (GSK126 + Foretinib; first compound 8 µM)	relative viability (Carboplatin + Foretinib; first compound 0.08 µM)	relative viability (Carboplatin + Foretinib; first compound 0.253 µM)	relative viability (Carboplatin + Foretinib; first compound 0.8 µM)	relative viability (Carboplatin + Foretinib; first compound 2.53 µM)	relative viability (Carboplatin + Foretinib; first compound 8 µM)	relative viability (MLN4924 + Bortezomib; first compound 0.04 µM)	relative viability (MLN4924 + Bortezomib; first compound 0.1265 µM)	relative viability (MLN4924 + Bortezomib; first compound 0.4 µM)	relative viability (MLN4924 + Bortezomib; first compound 1.265 µM)	relative viability (MLN4924 + Bortezomib; first compound 4 µM)
NCI-H1793	0.162	0.125	0.182	0.297	0.148	0.799	0.519	0.581	0.776	0.885	0.939	0.773	0.882	0.718	0.724	–	–	–	–	–
NCI-H522	1.08	0.709	0.851	0.433	0.467	–	–	–	–	–	–	–	–	–	–	–	–	–	–	–
NCI-H1395	0.867	0.619	0.539	0.429	0.346	1.17	0.878	1.04	1.07	0.785	1.03	1.03	0.805	0.709	0.726	–	–	–	–	–
NCI-H358	0.338	0.422	0.214	0.105	0.111	0.742	0.629	0.66	0.859	0.786	0.736	0.783	0.721	0.764	0.651	–	–	–	–	–
Calu-6	–	–	–	–	–	1.02	0.934	0.896	0.829	0.978	0.911	0.919	0.793	0.789	0.415	1	0.557	0.219	0.152	0.158
EBC-1	–	–	–	–	–	0.117	0.113	0.0893	0.102	0.0935	0.0979	0.108	0.108	0.0821	0.101	0.403	0.269	0.17	0.117	0.142
IA-LM	–	–	–	–	–	1.26	1.03	0.994	1.03	1.08	1.25	1.06	1.21	1.19	1	0.381	0.202	0.0828	0.0567	0.0708
NCI-H1299	–	–	–	–	–	1.14	1.13	1.05	1.07	1.11	1.13	1.09	1.04	1.05	0.996	1.01	0.803	0.402	0.269	0.225
NCI-H2342	0.773	0.757	0.682	0.723	0.464	1.16	1.05	0.998	1.05	1.16	0.949	0.961	0.993	0.865	0.785	–	–	–	–	–
HCC-44	0.964	0.564	0.441	0.227	0.294	–	–	–	–	–	–	–	–	–	–	0.774	0.642	0.281	0.208	0.19
HCC-78	–	–	–	–	–	0.561	0.556	0.521	0.63	0.548	0.616	0.555	0.54	0.526	0.545	0.568	0.397	0.51	0.241	0.229
SK-MES-1	0.866	0.694	0.551	0.173	0.195	1.01	0.913	0.88	0.834	0.976	1.24	0.95	0.906	1.06	0.818	–	–	–	–	–
SW 900	0.148	0.183	0.154	0.152	0.178	0.753	0.817	0.922	0.848	0.909	1.08	0.789	0.677	0.769	0.682	–	–	–	–	–
LK-2	0.234	0.173	0.192	0.212	0.182	1.44	1.33	1.28	1.15	1.19	1.46	1.24	1.17	1.01	1.26	–	–	–	–	–
NCI-H2170	0.631	0.443	0.269	0.172	0.147	0.587	1.03	0.979	0.969	0.973	0.994	0.527	1.02	0.942	0.468	–	–	–	–	–
NCI-H1623	0.523	0.477	0.454	0.282	0.293	0.941	0.888	0.916	0.883	0.799	0.959	0.919	0.884	0.747	0.725	–	–	–	–	–
A549	–	–	–	–	–	1.01	0.974	0.922	0.954	0.904	1.03	0.991	0.888	0.768	0.741	–	–	–	–	–
NCI-H1792	0.515	0.436	0.495	0.321	0.359	–	–	–	–	–	–	–	–	–	–	0.938	1	1.09	0.663	0.425
NCI-H1944	0.783	0.482	0.578	0.171	0.168	0.918	0.837	0.854	0.872	0.956	0.971	0.855	0.854	0.789	0.601	–	–	–	–	–

Source: the supplement of paper PMC10307832
